From PubChem BioAssay AID1259408 (Genetic Toxicology Data Bank (GENE-TOX), 2018)
Calls of active or inactive are those of the source. How the calls were made is not given here.

Test system: GENE-TOX genotoxicity assays, various organisms and cells
Assay: GENE-TOX mutagenicity studies
[1] = Species/Cell Type: Escherichia coli polA (W3119 vs P3478), Assay Type: Rec-assay, DNA effects (bacterial DNA repair), Assay Code: RE1+, Evaluation Type: Evaluation A (Pre-1980)
[2] = Species/Cell Type: Saccharomyces cerevisiae, Assay Type: Mitotic recombination or gene conversion, Assay Code: YEH+, Evaluation Type: Evaluation A (Pre-1980)
[3] = Species/Cell Type: Vicia faba, Assay Type: Chromosome aberrations, Assay Code: VIC+, Evaluation Type: Evaluation A (Pre-1980)
[4] = Species/Cell Type: Nonhuman, Assay Type: Sister-chromatid exchange (SCE) in vitro, Assay Code: SC2+, Evaluation Type: Evaluation B (Post-1980)
[5] = Species/Cell Type: Salmonella typhimurium (one or more of the five standard strains: TA98, TA100, TA1535, TA1537, and TA1538), Assay Type: Histidine reverse gene mutation, Ames assay, Assay Code: SAL+*, Activation: With metabolic activation, Evaluation Type: Evaluation A (Pre-1980)
[6] = Species/Cell Type: Human, Assay Type: Sister-chromatid exchange (SCE) in vitro, Assay Code: SC1+D, Dose Response: With dose response, Evaluation Type: Evaluation B (Post-1980)
[7] = Species/Cell Type: Nonhuman, Assay Type: Sister-chromatid exchange (SCE) in vitro, Assay Code: SC2+D, Dose Response: With dose response, Evaluation Type: Evaluation B (Post-1980)

With `O=C1CCO1` the mutagenic call (Species/Cell Type: Allium cepa, Assay Type: Chromosome aberrations, Assay Code: ALC+, Evaluation Type: Evaluation A (Pre-1980)) was “active; positive”, the mutagenic call (Species/Cell Type: Chinese hamster ovary (CHO) cells, Assay Type: Forward gene mutation at the HPRT locus, Assay Code: CHO+, Evaluation Type: Evaluation B (Post-1980)) was “active; positive” and the mutagenic call (Species/Cell Type: Drosophila melanogaster, Assay Type: Sex-linked recessive lethal gene mutation, Assay Code: SRL+, Evaluation Type: Evaluation A (Pre-1980)) was “active; positive”. For the same compound, the mutagenic call (Species/Cell Type: Drosophila melanogaster, Sex: Male, Assay Type: Heritable translocation test, chromosome aberrations, Assay Code: DHT+, Evaluation Type: Evaluation A (Pre-1980)) was “active; positive”, the mutagenic call [1] was “active; positive” and the mutagenic call (Species/Cell Type: Human diploid fibroblasts, Assay Type: Unscheduled DNA synthesis (UDS) in vitro, DNA effects, Assay Code: UDH+, Evaluation Type: Evaluation A (Pre-1980)) was “active; positive”. The mutagenic call (Species/Cell Type: Mammalian polychromatic erythrocytes, Assay Type: Micronucleus test, chromosome aberrations, Assay Code: MNTT, Evaluation Type: Evaluation A (Pre-1980)) was “no conclusion”, the mutagenic call (Species/Cell Type: Mouse lymphoma (L5178Y) cells, Assay Type: Forward gene mutation at the thymidine kinase (TK) locus, chromosome aberrations, Assay Code: L51+, Evaluation Type: Evaluation A (Pre-1980)) was “active; positive” and the mutagenic call (Species/Cell Type: Mouse, Sex: Male, Assay Type: Sperm morphology, Assay Code: SPI-, Evaluation Type: Evaluation A (Pre-1980)) was “inactive; negative”. For the same compound, the mutagenic call (Species/Cell Type: Neurospora crassa, Assay Type: Forward gene mutation, Assay Code: NEF+, Evaluation Type: Evaluation A (Pre-1980)) was “active; positive”, the mutagenic call (Species/Cell Type: Neurospora crassa, Assay Type: Reverse gene mutation, Assay Code: NER+, Evaluation Type: Evaluation A (Pre-1980)) was “active; positive” and the call (Species/Cell Type: Nonhuman, Assay Type: In vivo carcinogenicity studies, Assay Code: CCG+, Evaluation Type: Evaluation A (Pre-1980)) was “active; positive”. For the same compound, the mutagenic call (Species/Cell Type: Nonhuman, Assay Type: Sister-chromatid exchange (SCE) in vitro, Assay Code: SC2+D, Dose Response: With dose response, Evaluation Type: Evaluation A (Pre-1980)) was “active; positive”, the mutagenic call (Species/Cell Type: Saccharomyces cerevisiae, Assay Type: Mitotic recombination or gene conversion, Assay Code: YEC+, Evaluation Type: Evaluation A (Pre-1980)) was “active; positive” and the mutagenic call [2] was “active; positive”. The mutagenic call (Species/Cell Type: Saccharomyces cerevisiae, Assay Type: Reverse gene mutation, Assay Code: YER+, Evaluation Type: Evaluation A (Pre-1980)) was “active; positive”, the mutagenic call (Species/Cell Type: Salmonella typhimurium (one or more of the five standard strains: TA98, TA100, TA1535, TA1537, and TA1538), Assay Type: Histidine reverse gene mutation, Ames assay, Assay Code: SAL+, Evaluation Type: Evaluation A (Pre-1980)) was “active; positive” and the mutagenic call (Species/Cell Type: Salmonella typhimurium, Assay Type: Forward and reverse gene mutation, host-mediated assay, Assay Code: HMA+, Evaluation Type: Evaluation A (Pre-1980)) was “active; positive”. The mutagenic call (Species/Cell Type: Syrian hamster embryo (SA7/SHE) cells, Assay Type: Cell transformation, viral enhanced, Assay Code: CT7+, Evaluation Type: Evaluation A (Pre-1980)) was “active; positive”, the mutagenic call (Species/Cell Type: Syrian hamster embryo (SHE) cells, Assay Type: Cell transformation, focus assay, Assay Code: CTF+, Evaluation Type: Evaluation A (Pre-1980)) was “active; positive” and the mutagenic call [3] was “active; positive”.

For `COc1cc(O)ccc1O`, the mutagenic call (Species/Cell Type: Allium cepa, Assay Type: Chromosome aberrations, Assay Code: ALCT, Evaluation Type: Evaluation A (Pre-1980)) was “no conclusion”.

For `Cc1ccc2cc3ccc4ccccc4c3cc2c1`, the mutagenic call [4] was “active; positive”, the mutagenic call [5] was “active; positive” and the mutagenic call (Species/Cell Type: Syrian hamster embryo (SHE) cells, Assay Type: Cell transformation, clonal assay, Assay Code: CTC+, Evaluation Type: Evaluation A (Pre-1980)) was “active; positive”.

`CCN(CC)CCNc1ccc(O)c2c1C(=O)c1ccccc1S2=O` (stereo not drawn) was tested, and the mutagenic call (Species/Cell Type: Fischer rat embryo (RLV/1706) cells, Assay Type: Cell transformation, viral enhanced, Assay Code: CTR+, Evaluation Type: Evaluation A (Pre-1980)) was “active; positive”.

For `Cc1c2c(c3ccc4ccccc4c3c1C)CCC2=O`, the mutagenic call [5] was “active; positive”.

In the case of `O=c1[nH]c(=O)n([C@H]2C[C@H](O)[C@@H](CO)O2)cc1/C=C/C(F)(F)F`, the mutagenic call [6] was “active; positive”.

`NC[C@H]1O[C@H](O[C@H]2[C@H](O)[C@@H](O[C@H]3O[C@H](CO)[C@@H](O)[C@H](N)[C@H]3O)[C@H](N)C[C@@H]2N)[C@H](O)[C@@H](O)[C@@H]1O` was tested, and the mutagenic call (Species/Cell Type: Bacillus subtilis (H17 vs M45T), Assay Type: Rec-assay, spot test, DNA effects (bacterial DNA repair), Assay Code: REXT, Evaluation Type: Evaluation A (Pre-1980)) was “no conclusion”, the mutagenic call (Species/Cell Type: Escherichia coli polA (W3119 vs P3478), Assay Type: Rec-assay, DNA effects (bacterial DNA repair), Assay Code: RE1-, Evaluation Type: Evaluation A (Pre-1980)) was “inactive; negative” and the mutagenic call (Species/Cell Type: Saccharomyces cerevisiae, Assay Type: Mitotic recombination or gene conversion, Assay Code: YEH-, Evaluation Type: Evaluation A (Pre-1980)) was “inactive; negative”.

`N#CN(CCCC(NC(=O)c1ccccc1)C(N)=O)N=O` (stereo not drawn) was tested, and the mutagenic call [1] was “active; positive”.

For `COC([CH2][Hg+])CNC(=O)C1CCC(C)(C(=O)[O-])C1(C)C.O=C([O-])C[S-].[H+].[H+]` (stereo not drawn), the mutagenic call (Species/Cell Type: Mammalian oocytes or early embryo, Assay Type: Chromosome aberrations in vivo, Assay Code: CYO-, Evaluation Type: Evaluation A (Pre-1980)) was “inactive; negative”.

For `c1ccc2c(c1)-c1cccc3cccc-2c13`, the mutagenic call (Species/Cell Type: Chinese hamster ovary (CHO) cells, Assay Type: Forward gene mutation at the HPRT locus, Assay Code: CHO+*, Activation: With metabolic activation, Evaluation Type: Evaluation B (Post-1980)) was “active; positive”, the mutagenic call (Species/Cell Type: Fischer rat embryo (RLV/1706) cells, Assay Type: Cell transformation, viral enhanced, Assay Code: CTRT, Evaluation Type: Evaluation A (Pre-1980)) was “no conclusion” and the mutagenic call [7] was “active; positive”. For the same compound, the mutagenic call (Species/Cell Type: Nonhuman, Assay Type: Sister-chromatid exchange (SCE) in vivo, Assay Code: SC3-, Evaluation Type: Evaluation B (Post-1980)) was “inactive; negative”.

With `Oc1cccc2ncccc12` the mutagenic call [5] was “active; positive”.

In the case of `COC(=O)COc1ccc(Cl)cc1CCl` (tested in a mixture with another compound), the mutagenic call (Species/Cell Type: Saccharomyces cerevisiae, Assay Type: Reverse gene mutation, Assay Code: YERT, Evaluation Type: Evaluation A (Pre-1980)) was “no conclusion”.

`Cc1cc2ccccc2c2cc3ccccc3cc12` was tested, and the mutagenic call [7] was “active; positive”, the mutagenic call (Species/Cell Type: Nonhuman, Assay Type: Sister-chromatid exchange (SCE) in vitro, Assay Code: SC2-, Evaluation Type: Evaluation B (Post-1980)) was “inactive; negative” and the mutagenic call [5] was “active; positive”.

In the case of `C1=CC[C@@H](c2cccnc2)NC1`, the mutagenic call [7] was “active; positive”.

In the case of `Oc1cc(Cl)ccc1Oc1ccc(Cl)cc1Cl`, the mutagenic call (Species/Cell Type: Mammalian polychromatic erythrocytes, Assay Type: Micronucleus test, chromosome aberrations, Assay Code: MNTT, Evaluation Type: Evaluation B (Post-1980)) was “no conclusion”, the mutagenic call (Species/Cell Type: Mouse, Sex: Female, Assay Type: Spot test, gene mutation, Assay Code: MST-, Evaluation Type: Evaluation A (Pre-1980)) was “inactive; negative” and the mutagenic call (Species/Cell Type: Saccharomyces cerevisiae, Assay Type: Forward gene mutation, Assay Code: YEF+, Evaluation Type: Evaluation A (Pre-1980)) was “active; positive”. The mutagenic call (Species/Cell Type: Saccharomyces cerevisiae, Assay Type: Mitotic recombination or gene conversion, Assay Code: YEC-, Evaluation Type: Evaluation A (Pre-1980)) was “inactive; negative” and the mutagenic call [2] was “active; positive”.

For `CC(C)(O)CCc1ccc(O)c2c(=O)c3c(O)c4c(cc3oc12)O[C@H]1OC=C[C@@]41O`, the mutagenic call [5] was “active; positive”.

For `O[C@H]1[C@@H]2O[C@@H]2c2cc3ccc4cccc5ccc(c2[C@@H]1O)c3c45`, the mutagenic call (Species/Cell Type: Mouse prostate cells, Assay Type: Cell transformation, Assay Code: CTM-, Evaluation Type: Evaluation A (Pre-1980)) was “inactive; negative”.

`O=[O+][O-]` was tested, and the mutagenic call (Species/Cell Type: Human lymphocytes or leukocytes, Assay Type: Chromosome aberrations in vitro, Assay Code: CY7T, Evaluation Type: Evaluation A (Pre-1980)) was “no conclusion”, the mutagenic call (Species/Cell Type: Human lymphocytes or leukocytes, Assay Type: Chromosome aberrations in vivo, Assay Code: CY8T, Evaluation Type: Evaluation A (Pre-1980)) was “no conclusion” and the mutagenic call [6] was “active; positive”. For the same compound, the mutagenic call (Species/Cell Type: Mammalian germ cells, Sex: Male, Assay Type: Chromosome aberrations in vivo, Assay Code: CY9T, Evaluation Type: Evaluation A (Pre-1980)) was “no conclusion”, the mutagenic call (Species/Cell Type: Nonhuman bone marrow, Assay Type: Chromosome aberrations, in vivo, Assay Code: CY#-, Evaluation Type: Evaluation A (Pre-1980)) was “inactive; negative” and the mutagenic call (Species/Cell Type: Nonhuman lymphocytes or leukocytes, Assay Type: Chromosome aberrations in vivo, Assay Code: CY%T, Evaluation Type: Evaluation A (Pre-1980)) was “no conclusion”. For the same compound, the mutagenic call (Species/Cell Type: Nonhuman, Assay Type: Sister-chromatid exchange (SCE) in vivo, Assay Code: SC3-, Evaluation Type: Evaluation A (Pre-1980)) was “inactive; negative”, the mutagenic call (Species/Cell Type: Tradescantia species, Assay Type: Gene mutation, Assay Code: TRM+D, Dose Response: With dose response, Evaluation Type: Evaluation A (Pre-1980)) was “active; positive” and the mutagenic call [3] was “active; positive”.

In the case of `CCCCOC(=O)c1ccccc1C(=O)OCCCC`, the mutagenic call [4] was “active; positive”, the mutagenic call (Species/Cell Type: Nonhuman, Assay Type: Sister-chromatid exchange (SCE) in vitro, Assay Code: SC2T, Evaluation Type: Evaluation A (Pre-1980)) was “no conclusion” and the mutagenic call (Species/Cell Type: Saccharomyces cerevisiae, Assay Type: Reverse gene mutation, Assay Code: YER-*, Activation: With metabolic activation, Evaluation Type: Evaluation A (Pre-1980)) was “inactive; negative”.

With `O=C(O)c1ccc2ccccc2n1` the mutagenic call (Species/Cell Type: Salmonella typhimurium (one or more of the five standard strains: TA98, TA100, TA1535, TA1537, and TA1538), Assay Type: Histidine reverse gene mutation, Ames assay, Assay Code: SALT, Evaluation Type: Evaluation A (Pre-1980)) was “no conclusion”.
